These results are taken from publication PMC9329436, “Optimization of the 4-anilinoquin(az)oline scaffold as epidermal growth factor receptor (EGFR) inhibitors for chordoma utilizing a toxicology profiling assay platform” (Scientific Reports, 2022).

Molecules are shown by their SMILES. Read-outs that look alike come from different tables or passages of the source.

Format in all cases: biochemical
Assay [1] concerns the target 320 wild-type protein kinases (Homo sapiens, UniProt P29597). The note with it: kinase TYK2, singlicate. The text has this:
(§1) Table S4. Profiling of two compounds at two concentrations against 320 wild-type protein kinases; singlicate measurement; Residual activities (% of control).

For assay [2], the target named is 320 wild-type protein kinases (Homo sapiens, UniProt P36894). The note with it: BMPR1A, singlicate.
Chain of 320 wild-type protein kinases (Homo sapiens, UniProt P36894) (P36894 24-532): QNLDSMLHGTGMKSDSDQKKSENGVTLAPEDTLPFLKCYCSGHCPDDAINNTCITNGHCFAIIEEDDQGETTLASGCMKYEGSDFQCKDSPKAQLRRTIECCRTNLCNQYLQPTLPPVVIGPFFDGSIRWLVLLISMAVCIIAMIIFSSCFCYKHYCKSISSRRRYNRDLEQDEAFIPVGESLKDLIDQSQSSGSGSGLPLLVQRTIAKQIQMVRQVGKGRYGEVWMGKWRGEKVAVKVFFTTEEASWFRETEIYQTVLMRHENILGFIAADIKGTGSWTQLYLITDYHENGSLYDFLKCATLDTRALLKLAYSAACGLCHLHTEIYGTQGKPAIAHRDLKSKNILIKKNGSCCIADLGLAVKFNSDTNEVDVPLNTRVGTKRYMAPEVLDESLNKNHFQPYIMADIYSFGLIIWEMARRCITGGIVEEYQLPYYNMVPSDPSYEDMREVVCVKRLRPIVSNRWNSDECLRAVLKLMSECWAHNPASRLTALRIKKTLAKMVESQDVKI
Source text: as §1

For assay [3], the target named is 320 wild-type protein kinases (Homo sapiens, UniProt P45983). The note with it: singlicate.
Chain of 320 wild-type protein kinases (Homo sapiens, UniProt P45983) (P45983 whole entry): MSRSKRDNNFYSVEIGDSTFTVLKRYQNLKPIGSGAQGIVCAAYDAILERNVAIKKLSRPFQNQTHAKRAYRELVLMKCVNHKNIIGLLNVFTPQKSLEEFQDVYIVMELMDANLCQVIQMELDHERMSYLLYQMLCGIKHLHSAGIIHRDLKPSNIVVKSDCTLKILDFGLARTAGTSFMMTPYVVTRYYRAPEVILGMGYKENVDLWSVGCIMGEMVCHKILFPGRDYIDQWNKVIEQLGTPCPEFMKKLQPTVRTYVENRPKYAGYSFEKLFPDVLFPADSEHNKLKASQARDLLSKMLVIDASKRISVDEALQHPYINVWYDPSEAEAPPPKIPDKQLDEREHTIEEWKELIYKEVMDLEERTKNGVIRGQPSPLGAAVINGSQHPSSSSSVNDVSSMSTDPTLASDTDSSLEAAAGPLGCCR
Source text: as §1

For assay [4], the target named is 320 wild-type protein kinases (Homo sapiens, UniProt P51451). The note with it: BLK, singlicate.
Source text: as §1

In assay [5] the target is T1, 320 wild-type protein kinases (Homo sapiens, UniProt P54753).
T1 sequence (P54753 34-998): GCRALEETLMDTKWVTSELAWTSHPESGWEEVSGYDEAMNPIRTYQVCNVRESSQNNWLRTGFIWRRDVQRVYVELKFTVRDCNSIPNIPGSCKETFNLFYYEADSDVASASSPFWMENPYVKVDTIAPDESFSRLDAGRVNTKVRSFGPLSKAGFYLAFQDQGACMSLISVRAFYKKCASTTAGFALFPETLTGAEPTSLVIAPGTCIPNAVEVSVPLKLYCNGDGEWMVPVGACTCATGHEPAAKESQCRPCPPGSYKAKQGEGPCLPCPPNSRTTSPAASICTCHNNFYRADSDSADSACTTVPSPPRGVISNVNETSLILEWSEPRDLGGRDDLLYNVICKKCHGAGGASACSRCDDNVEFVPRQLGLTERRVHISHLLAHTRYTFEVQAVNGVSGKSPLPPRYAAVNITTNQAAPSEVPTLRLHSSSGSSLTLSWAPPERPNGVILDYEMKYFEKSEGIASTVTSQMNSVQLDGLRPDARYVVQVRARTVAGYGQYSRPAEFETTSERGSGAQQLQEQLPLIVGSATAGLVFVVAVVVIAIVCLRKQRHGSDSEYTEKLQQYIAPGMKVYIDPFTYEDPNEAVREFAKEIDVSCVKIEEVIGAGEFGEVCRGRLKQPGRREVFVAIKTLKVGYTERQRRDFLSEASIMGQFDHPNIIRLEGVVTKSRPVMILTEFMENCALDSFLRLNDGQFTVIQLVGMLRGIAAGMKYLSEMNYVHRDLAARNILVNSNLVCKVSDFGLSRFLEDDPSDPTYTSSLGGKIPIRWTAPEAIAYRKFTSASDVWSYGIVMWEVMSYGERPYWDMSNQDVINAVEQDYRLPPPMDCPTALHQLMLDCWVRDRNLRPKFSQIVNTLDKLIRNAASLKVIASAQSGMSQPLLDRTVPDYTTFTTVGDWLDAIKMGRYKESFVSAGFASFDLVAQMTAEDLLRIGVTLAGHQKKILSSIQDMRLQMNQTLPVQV
The note with it: singlicate.
Source text: as §1

In assay [6] the target is 320 wild-type protein kinases (Homo sapiens, UniProt P57059). The note with it: kinase SIK1, singlicate.
Chain of 320 wild-type protein kinases (Homo sapiens, UniProt P57059) (P57059 whole entry): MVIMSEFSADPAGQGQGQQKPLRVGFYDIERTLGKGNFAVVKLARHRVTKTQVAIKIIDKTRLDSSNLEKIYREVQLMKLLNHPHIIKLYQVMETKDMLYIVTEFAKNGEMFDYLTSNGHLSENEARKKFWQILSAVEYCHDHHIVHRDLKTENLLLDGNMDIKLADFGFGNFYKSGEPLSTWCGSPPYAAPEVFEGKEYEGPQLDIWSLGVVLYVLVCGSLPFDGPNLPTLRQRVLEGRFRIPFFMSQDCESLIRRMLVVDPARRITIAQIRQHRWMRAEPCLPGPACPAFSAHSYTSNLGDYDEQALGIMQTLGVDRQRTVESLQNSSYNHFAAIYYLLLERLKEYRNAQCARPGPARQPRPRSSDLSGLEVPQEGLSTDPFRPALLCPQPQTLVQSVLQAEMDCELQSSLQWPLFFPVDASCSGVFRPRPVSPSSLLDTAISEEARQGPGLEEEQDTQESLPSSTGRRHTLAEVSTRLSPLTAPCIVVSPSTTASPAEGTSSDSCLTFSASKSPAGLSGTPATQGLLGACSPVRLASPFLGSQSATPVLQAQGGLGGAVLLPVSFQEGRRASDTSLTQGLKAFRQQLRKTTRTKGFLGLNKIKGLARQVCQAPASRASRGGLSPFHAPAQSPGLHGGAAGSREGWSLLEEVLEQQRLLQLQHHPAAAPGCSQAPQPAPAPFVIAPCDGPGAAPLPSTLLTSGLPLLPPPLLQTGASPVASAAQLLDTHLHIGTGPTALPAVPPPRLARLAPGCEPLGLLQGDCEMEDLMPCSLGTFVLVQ
Source text: as §1

In assay [7] the target is 320 wild-type protein kinases (Homo sapiens, UniProt Q9NYY3). Particulars: kinase SNK, singlicate.
Chain of 320 wild-type protein kinases (Homo sapiens, UniProt Q9NYY3) (Q9NYY3 whole entry): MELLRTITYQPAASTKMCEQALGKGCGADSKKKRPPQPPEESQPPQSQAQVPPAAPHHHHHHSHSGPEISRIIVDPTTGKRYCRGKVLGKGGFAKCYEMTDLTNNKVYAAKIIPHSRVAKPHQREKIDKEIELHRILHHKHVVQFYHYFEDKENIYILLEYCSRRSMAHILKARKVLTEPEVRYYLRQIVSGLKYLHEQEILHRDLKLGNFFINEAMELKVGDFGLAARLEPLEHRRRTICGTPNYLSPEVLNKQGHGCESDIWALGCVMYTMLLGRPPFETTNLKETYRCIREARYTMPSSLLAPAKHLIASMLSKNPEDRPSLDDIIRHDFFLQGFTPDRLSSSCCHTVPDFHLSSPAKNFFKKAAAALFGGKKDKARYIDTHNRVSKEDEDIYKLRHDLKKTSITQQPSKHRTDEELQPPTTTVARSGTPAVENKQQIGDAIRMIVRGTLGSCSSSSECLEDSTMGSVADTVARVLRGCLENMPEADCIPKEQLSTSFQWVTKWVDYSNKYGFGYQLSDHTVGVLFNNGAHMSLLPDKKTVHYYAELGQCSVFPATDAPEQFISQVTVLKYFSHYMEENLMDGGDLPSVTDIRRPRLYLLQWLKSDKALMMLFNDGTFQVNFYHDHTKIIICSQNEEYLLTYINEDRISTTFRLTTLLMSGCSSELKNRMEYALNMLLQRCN
Source text: as §1

Assay [8] deals with T2, 320 wild-type protein kinases (Homo sapiens, UniProt Q9UBE8).
T2 sequence (Q9UBE8 1-527): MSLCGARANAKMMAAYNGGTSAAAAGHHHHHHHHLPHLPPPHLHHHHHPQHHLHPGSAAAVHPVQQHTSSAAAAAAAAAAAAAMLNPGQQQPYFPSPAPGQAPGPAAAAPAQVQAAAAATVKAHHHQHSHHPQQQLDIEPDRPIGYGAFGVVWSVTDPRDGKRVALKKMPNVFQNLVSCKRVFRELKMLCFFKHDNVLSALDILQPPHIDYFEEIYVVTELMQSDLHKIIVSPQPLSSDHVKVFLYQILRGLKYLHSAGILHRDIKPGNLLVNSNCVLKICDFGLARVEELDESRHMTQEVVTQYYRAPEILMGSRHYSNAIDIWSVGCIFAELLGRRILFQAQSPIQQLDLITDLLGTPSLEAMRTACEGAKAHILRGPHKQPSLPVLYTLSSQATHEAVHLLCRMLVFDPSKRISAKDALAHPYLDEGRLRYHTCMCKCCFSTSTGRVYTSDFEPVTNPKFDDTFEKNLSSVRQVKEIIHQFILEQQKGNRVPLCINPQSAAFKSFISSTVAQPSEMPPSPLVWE
Particulars: NLK, singlicate.
Source text: as §1

Assay [9] addresses 320 wild-type protein kinases (Homo sapiens, UniProt Q9Y2K2). Particulars: kinase SIK3, singlicate.
Source text: as §1

For assay [10], the target named is 320 wild-type protein kinases (Homo sapiens, UniProt Q9Y3S1). Particulars: kinase WNK2, singlicate.
Chain of 320 wild-type protein kinases (Homo sapiens, UniProt Q9Y3S1) (Q9Y3S1 whole entry): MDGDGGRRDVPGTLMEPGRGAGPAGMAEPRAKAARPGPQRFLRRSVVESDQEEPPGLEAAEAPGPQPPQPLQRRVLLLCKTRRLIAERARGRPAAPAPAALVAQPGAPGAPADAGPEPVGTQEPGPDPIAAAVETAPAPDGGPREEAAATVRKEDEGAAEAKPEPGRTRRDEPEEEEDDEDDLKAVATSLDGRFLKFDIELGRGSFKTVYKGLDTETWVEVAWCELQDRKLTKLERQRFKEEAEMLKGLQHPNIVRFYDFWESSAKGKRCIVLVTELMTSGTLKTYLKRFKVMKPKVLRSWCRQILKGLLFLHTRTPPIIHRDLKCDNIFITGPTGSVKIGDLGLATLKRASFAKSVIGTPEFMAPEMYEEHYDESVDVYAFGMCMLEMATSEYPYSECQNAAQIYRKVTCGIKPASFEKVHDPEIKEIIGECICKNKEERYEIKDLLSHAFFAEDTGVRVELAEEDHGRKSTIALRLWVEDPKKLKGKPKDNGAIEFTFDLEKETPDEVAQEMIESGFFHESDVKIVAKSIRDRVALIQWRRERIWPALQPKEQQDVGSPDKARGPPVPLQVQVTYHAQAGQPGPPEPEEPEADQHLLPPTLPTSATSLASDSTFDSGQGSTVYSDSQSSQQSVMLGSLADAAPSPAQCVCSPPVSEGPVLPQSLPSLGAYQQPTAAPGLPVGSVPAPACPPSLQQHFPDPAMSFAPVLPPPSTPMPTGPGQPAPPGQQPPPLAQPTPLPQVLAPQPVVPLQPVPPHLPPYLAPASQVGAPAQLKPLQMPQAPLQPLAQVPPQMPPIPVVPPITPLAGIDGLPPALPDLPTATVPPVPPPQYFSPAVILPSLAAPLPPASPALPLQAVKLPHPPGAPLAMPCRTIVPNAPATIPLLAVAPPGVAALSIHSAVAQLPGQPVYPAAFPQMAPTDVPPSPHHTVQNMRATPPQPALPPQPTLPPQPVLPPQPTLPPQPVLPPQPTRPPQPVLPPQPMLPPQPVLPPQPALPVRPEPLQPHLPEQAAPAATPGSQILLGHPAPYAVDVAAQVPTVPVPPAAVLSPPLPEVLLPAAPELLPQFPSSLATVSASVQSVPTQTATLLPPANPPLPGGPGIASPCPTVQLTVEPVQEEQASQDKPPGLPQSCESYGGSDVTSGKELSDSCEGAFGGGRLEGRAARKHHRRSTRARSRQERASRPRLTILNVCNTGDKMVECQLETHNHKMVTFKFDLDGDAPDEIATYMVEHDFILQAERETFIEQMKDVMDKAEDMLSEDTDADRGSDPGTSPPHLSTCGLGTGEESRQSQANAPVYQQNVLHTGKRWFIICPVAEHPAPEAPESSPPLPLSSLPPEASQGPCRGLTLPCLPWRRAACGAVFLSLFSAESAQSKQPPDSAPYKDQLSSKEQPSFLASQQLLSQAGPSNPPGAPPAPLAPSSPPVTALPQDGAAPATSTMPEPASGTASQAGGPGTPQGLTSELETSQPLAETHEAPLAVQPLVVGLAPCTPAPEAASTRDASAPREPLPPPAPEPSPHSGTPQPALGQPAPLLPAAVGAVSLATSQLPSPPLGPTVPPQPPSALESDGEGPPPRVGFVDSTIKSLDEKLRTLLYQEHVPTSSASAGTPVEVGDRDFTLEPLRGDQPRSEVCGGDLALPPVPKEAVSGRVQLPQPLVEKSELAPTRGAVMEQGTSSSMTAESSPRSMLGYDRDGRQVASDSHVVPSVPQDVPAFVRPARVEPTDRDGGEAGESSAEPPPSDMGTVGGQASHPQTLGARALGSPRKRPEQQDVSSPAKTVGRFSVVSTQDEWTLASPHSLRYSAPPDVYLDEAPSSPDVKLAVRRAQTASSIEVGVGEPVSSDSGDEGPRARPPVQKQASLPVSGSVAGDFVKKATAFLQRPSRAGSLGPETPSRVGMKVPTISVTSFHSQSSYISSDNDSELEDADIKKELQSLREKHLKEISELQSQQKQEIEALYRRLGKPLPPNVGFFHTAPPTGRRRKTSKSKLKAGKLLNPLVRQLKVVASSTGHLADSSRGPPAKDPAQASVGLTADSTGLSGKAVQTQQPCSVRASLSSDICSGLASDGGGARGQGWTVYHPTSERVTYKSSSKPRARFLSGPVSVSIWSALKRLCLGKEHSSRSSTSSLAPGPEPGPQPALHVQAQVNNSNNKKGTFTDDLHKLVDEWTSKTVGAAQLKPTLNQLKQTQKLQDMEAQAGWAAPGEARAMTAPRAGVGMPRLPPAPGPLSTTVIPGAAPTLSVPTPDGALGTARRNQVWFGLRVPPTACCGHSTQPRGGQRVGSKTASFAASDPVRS
Source text: as §1

For the compound `C#Cc1cc(Nc2ncnc3cc(I)ccc23)ccc1Cl` [Compound 41], the “Residual activity, TYK2” value in assay [1] (assay conc. 1.0E-06 M) is listed as 94 % of control; in [1] (assay conc. 1.0E-07 M), 101 % of control. The Residual activity in assay [2] (1.0E-06 M) is 96 % of control; in [2] (1.0E-07 M), 109 % of control; in assay [3] (JNK1, 1.0E-06 M) it was 91 % of control; in assay [3] (JNK1, 1.0E-07 M) it was 90 % of control; in assay [4] (1.0E-06 M), 93 % of control; in [4] (1.0E-07 M) it was 99 % of control. The Residual activity in [5] (EPHB3, 1.0E-06 M) was 100 % of control; in [5] (EPHB3, 1.0E-07 M), 110 % of control; in [8] (1.0E-06 M), 63 % of control; in assay [8] (1.0E-07 M), 76 % of control. For the same compound, the “Residual activity, SIK1” value in assay [6] (assay conc. 1.0E-06 M) is 77 % of control; in [6] (assay conc. 1.0E-07 M), 93 % of control. In addition, the “Residual activity, SNK” value in [7] (assay conc. 1.0E-06 M) is 89 % of control; in assay [7] (assay conc. 1.0E-07 M) it was 97 % of control. In addition, the “Residual activity, SIK3” value in assay [9] (assay conc. 1.0E-06 M) is 72 % of control; in assay [9] (assay conc. 1.0E-07 M) it was 77 % of control. For the same compound, the “Residual activity, WNK2” value in assay [10] (assay conc. 1.0E-06 M) is 82 % of control; in assay [10] (assay conc. 1.0E-07 M) it was 108 % of control.
Take `C#Cc1cc(Nc2ncnc3cc(OC)c(OC)cc23)ccc1Cl` [Compound 45]: the “Residual activity, TYK2” value in [1] (assay conc. 1.0E-06 M) was 114 % of control; in assay [1] (assay conc. 1.0E-07 M), 96 % of control. Further, the Residual activity in assay [2] (1.0E-06 M) was 110 % of control; in [2] (1.0E-07 M) it was 102 % of control; in [3] (JNK1, 1.0E-06 M), 94 % of control; in [3] (JNK1, 1.0E-07 M) it was 113 % of control; in assay [4] (1.0E-06 M), 62 % of control; in assay [4] (1.0E-07 M) it was 99 % of control. Also, the Residual activity in assay [5] (EPHB3, 1.0E-06 M) was 113 % of control; in [5] (EPHB3, 1.0E-07 M) it was 99 % of control; in assay [8] (1.0E-06 M), 31 % of control; in [8] (1.0E-07 M) it was 83 % of control. For the same compound, the results for the “Residual activity, SIK1” value in [6] (assay conc. 1.0E-06 M) and in [6] (assay conc. 1.0E-07 M) were 87 % of control and 101 % of control, respectively. Moreover, the “Residual activity, SNK” value in assay [7] (assay conc. 1.0E-06 M) is on record as 87 % of control; in assay [7] (assay conc. 1.0E-07 M), 99 % of control. Further, the entries for the “Residual activity, SIK3” value in assay [9] (assay conc. 1.0E-06 M) and in assay [9] (assay conc. 1.0E-07 M) were 58 % of control and 83 % of control, respectively. Moreover, the entries for the “Residual activity, WNK2” value in [10] (assay conc. 1.0E-06 M) and in [10] (assay conc. 1.0E-07 M) were 92 % of control and 97 % of control, respectively.
